Data from patent US20130137716A1, “PARENTERAL DEXTROSE FORMULATION OF CLOPIDOGREL” (ACADEMIC PHARMACEUTICALS INCORPORATED, priority 2011, published 2013).

Experiment: Storage stability of clopidogrel solution at room temperature and at 40°
Type: physicochemical

COC(=O)[C@H](c1ccccc1Cl)N1CCc2sccc2C1 [clopidogrel]
ability of solvent to form a stable solution of clopidogrel (D5W (5% dextrose in water)): not capable of forming a stable solution | ability of solvent to form a stable solution of clopidogrel (D50W (50% dextrose in water), room temperature and 40°): capable of forming a stable solution
